Measurements published in article PMC5574958, “Radiosynthesis and Preclinical Evaluation of [^18F]F-DPA, A Novel Pyrazolo[1,5a]pyrimidine Acetamide TSPO Radioligand, in Healthy Sprague Dawley Rats” (Molecular Imaging and Biology, 2017).

Test: In vivo PET/CT imaging, time-activity curves
Set-up: species or system Sprague Dawley rats
Protocol: Rats were anesthetized with isoflurane/oxygen gas and injected intravenously with [^18F]F-DPA (31.4 ± 2.1 MBq, n = 4 SA at the time of injection = 4.1 ± 0.4 GBq/μmol) for scanning by an Inveon multimodality PET/CT tomograph (Siemens Medical Solutions, Knoxville, TN, USA). In order to prevent eye dryness, a few drops of Oftagel (25 mg/g; Santen, Tampere, Finland) were applied to the eyes of the animals. The scanner has a 12.7 cm axial field of view (FOV) and 10 cm transaxial FOV generating images from 159 transaxial slices. The spatial resolution of the scanner is 1.4 mm according to the manufacturer’s specifications. The animals were scanned for 10 min with computed tomography (CT) for attenuation correction and anatomical reference, and immediately after that, the radiotracer was injected for a 60-min dynamic PET scan. Frames were taken at the following intervals: 30 × 10, 15 × 60, 4 × 300, and 2 × 600 s. Volume of interests (VOIs) were drawn over the whole brain, heart, lung, liver, and kidneys using Inveon Research Workplace Image Analysis software (Siemens Medical Solutions). From the VOIs, time–activity curves (TACs) were obtained and the uptake of [^18F]F-DPA was expressed as percentage of injected dose per milliliter of tissue (%inj. dose/ml).

## CCN(CC)C(=O)Cc1c(-c2ccc([18F])cc2)nn2c(C)cc(C)nc12 [[^18F]F-DPA]
In vivo TACs, high F-18 radioactivity in the intestine
  Excretion pathway: excreted via the hepatobiliary pathway
Whole brain TAC, i.v. injection, 60-min dynamic PET
  Time after injection at which concentration equilibrium is reached in the brain: 20 to 30 min
